Laboratory results from patent publication US6897227B2, “Prodrugs of proton pump inhibitors” (Winston Pharmaceuticals, Inc., priority 2002, dated 2005).

Key:
[1] = Stability in Britton Robinson buffers (hydrolysis of prodrug to PPI, HPLC); settings: Britton Robinson buffer, pH 7
Method: The stability of Compounds 1, 2, 3, 4 and 5 of the invention in aqueous solution (0.1 mg/mL) was investigated in Britton Robinson buffers of pH 3, pH 7, and pH 9, respectively. A solution of 0.1 mg/mL concentration of each compound in each buffer was prepared and the solutions were stored at 37° C. for 1 h and then the concentrations of test compounds were determined by HPLC.

gastric acid secretion = test: Inhibition of gastric acid secretion in rat, intravenous administration; format: in vivo
Method: (§1) 3 hours after administration the abdomen of the rat was incised and the pylorus was ligated under light ether anethesia. Histamine (30 mg/kg) and carbachol (30 μg/kg) were subcutaneously injected for acid stimulation. Immediately the abdomen was closed. Two hours later, the esophagus was ligated and the stomach was removed. The gastric juice was collected and acid output was quantified by titration using 0.1 N NaOH solution. As a control experiment, 1 ml of 50 mM phosphate buffer (pH 7.4) solution was orally administrated without any prodrug or proton pump inhibitory drug. Acid output was quantified by same method as described above, showing maximum histamine and carbachol-stimulated gastric acid secretion. Percentage inhibition was calculated from the fractional responses elicited by the test compound and a control experiment.
Inhibition of gastric acid secretion after intravenous administration of compounds of the invention was also examined. Lansoprazole sodium salt (20 mg) was dissolved in 40% hydroxypropyl-beta-cyclodextrin. The compounds of the invention used in this experiment were dissolved in phosphate buffered saline solution of pH 7.4. Each compound was injected intravenously at a dose of 5 μmole/kg or 10 μmole/kg (μmole per kg body weight of rat) as indicated in Table 4 below. Between 2 to 4 hours after injection gastric juice was collected, and the percentage of inhibition was determined as described above.

[2] = Stability in plasma at 37° C. (gradient HPLC-UV), human plasma; format: in vitro ADME
Method: (§2) Exemplary test compounds (prodrugs) of the invention were incubated in plasma at 37° C., and the concentration of the compounds and also of the corresponding proton pump inhibitor compounds (PPI) were determined by a gradient HPLC-UV method. Although the half-lives of test compounds in plasma varies depending on their structure, nevertheless it is apparent that in plasma the compounds of the invention are converted into the corresponding proton pump inhibitor at a rate faster than the hydrolysis rate of the compound at neutral or near neutral pH.

[3] = test system: histamine and carbachol-stimulated gastric acid secretion; test: Inhibition of gastric acid secretion of the conscious male rat, oral administration; format: in vivo, rat (Sprague-Dawley); settings: sodium salt, read-out: % inhibition of gastric acid secretion between 3-5 hours after administration; for inhibition in vivo at 20 µmol/kg: 20 μmole/kg; for inhibition in vivo at 40 µmol/kg: 40 μmole/kg; for inhibition in vivo at 10 µmol/kg: 10 μmole/kg
Method: Male rats (the Sprague-Dawley strain) were used in this experiment. OMEPRAZOLE sodium salt or LANSOPRAZOLE sodium salt (20 mg) was suspended in 10 ml of 0.1 N NaHCO3. 40 mg of each of the sodium salts of Compound 1, Compound 2, Compound 3, Compound 4, Compound 6 Compound 9, Compound 12, mixture (1:1) of Compound 16 and 17, mixture (1:1) of Compound 18 and 19, mixture (1:1) of Compound 20 and 21, mixture (1:1) of Compound 22 and 23, Compound 27, mixture (1:1) of Compound 34 and 35, and Compound 36 were dissolved in 10 ml of 50 mM sodium phosphate buffer, pH 7.4. The doses administered to the rats were as follows (μmole per kg body weight of the rat): OMEPRAZOLE (10 μmole/kg), LANSOPRAZOLE (10 μmole/kg), Compound 120 μmole/kg, Compound 2 40 μmole/kg, Compound 320 μmole/kg, Compound 420 μmole/kg, Compound 620 μmole/kg, Compound 940 μmole/kg, Compound 1240 μmole/kg, mixture (1:1) of Compound 16 and 17 40 μmole/kg, mixture (1:1) of Compound 18 and 19 40 μmole/kg, mixture (1:1) of Compound 20 and 21 40 μmole/kg, mixture (1:1) of Compound 22 and 23 40 μmole/kg, Compound 27 40 μmole/kg, mixture (1:1) of Compound 34 and 35 40 μmole/kg, and Compound 3640 μmole/kg. These drug solutions were orally administered.
as §1

[4] = Solubility in phosphate buffered saline buffer of pH 7.4 at 37° C.; format: physicochemical; settings: aqueous buffer, sodium salts, phosphate buffered saline buffer pH 7.4, read-out: Solubility at 37° C. Conc.
Method: The solubility of the sodium salts of certain exemplary compounds of the present invention in a phosphate buffered saline buffer of pH 7.4 (50 mM sodium phosphate, 10 mM KCl, 0.1 M NaCl) and also in a more acidic Britton Robinson buffer of pH 3 (40 mM acetic acid, 40 mM phosphoric acid, 40 mM boric acid, 36 mM NaOH, and 19.6 mg/ml KCl) was also evaluated. […] The tested compounds were much less soluble little in the Britton Robinson buffer of pH 3, but still more soluble than the prior art compounds (a) through (f). This is understandable in view of the fact that in the buffer of pH 7.4 the compounds of the invention form a sodium salt, whereas in the buffer of pH 3 the compounds are less soluble free carboxylic acids. Thus, a solution of a sodium or other pharmaceutically acceptable salt of the compounds of the invention, or stated in an other way the compounds of the invention at pH 7 or above are highly soluble and therefore suitable for administration by intravenous injection.

[5] = Stability in plasma at 37° C. (gradient HPLC-UV), rat plasma; format: in vitro ADME
Method: as §2

[6] = Aqueous solubility (water / distilled water); format: physicochemical; settings: free carboxylic acids
Description: A further significant advantage of the proton pump inhibitor prodrugs of the present invention relative to the proton pump inhibitor prodrugs disclosed in U.S. Pat. No. 6,093,734, 6,559,167 and PCT Publication WO 00109498 and to all other prior art is their increased solubility.

Structure (SMILES) | half-life [2] [min] | solubility [4] [mg/mL] | half-life [5] [min] | further results
Cc1cc(OCC(=O)NCCCCCC(=O)[O-])cc(C)c1S(=O)(=O)n1c([S+]([O-])Cc2nccc(OCC(F)(F)F)c2C)nc2ccccc21.[Na+] (centres unmarked) [Compound 6, 6-[2-(3,5-Dimethyl-4-{2-[3-methyl-4-(2,2,2-trifluoro-ethoxy)-pyridin-2-ylmethanesulfinyl]-benzimidazole-1-sulfonyl}-phenoxy)acetylamino]hexanoic acid sodium salt] | 60 | – | 52 | inhibition in vivo at 20 µmol/kg [3]: 53.5 ± 18.3%
COCCCOc1ccnc(C[S+]([O-])c2nc3ccccc3n2S(=O)(=O)c2ccc(OCC(=O)[O-])cc2)c1C.[Na+] (centres unmarked) [Compound 8, (4-{2-[4-(3-Methoxy-propoxy)-3-methyl-pyridin-2-ylmethanesulfinyl]-benzimidazole-1-sulfonyl}-phenoxy)-acetic acid sodium salt] | – | > 30 | – | –
COc1ccc2c(c1)nc([S+]([O-])Cc1ncc(C)c(OC)c1C)n2S(=O)(=O)c1ccc(OCC(=O)[O-])cc1.[Na+] (centres unmarked) [Compound 9, {4-[5-methoxy-2-(4-methoxy-3,5-dimethyl-pyridin-2-ylmethanesulfinyl)-benzimidazole-1-sulfonyl]-phenoxy}-acetic acid sodium salt] | – | > 30 | – | solubility [6]: > 0.1 mg/mL; inhibition in vivo at 40 µmol/kg [3]: 74.4 ± 25.1%
COc1ccc2nc([S+]([O-])Cc3ncc(C)c(OC)c3C)n(S(=O)(=O)c3ccc(OCC(=O)[O-])cc3)c2c1.[Na+] (centres unmarked) [Compound 10, {4-[6-methoxy-2-(4-methoxy-3,5-dimethyl-pyridin-2-ylmethanesulfinyl)-benzimidazole-1-sulfonyl]-phenoxy}-acetic acid sodium salt] | – | – | – | % inhibition of gastric acid secretion between 2-4 hours after i.v. administration (gastric acid secretion; 5 μmole/kg): 18.3 ± 11.9%
Cc1c(OCC(F)(F)F)ccnc1C[S+]([O-])c1nc2ccccc2n1S(=O)(=O)c1ccc(OCC(=O)NCCCC(=O)[O-])cc1C(C)C.[Na+] (centres unmarked) [Compound 11] | 14 | – | 53 | –
Cc1cc(OCC(=O)[O-])cc(C(C)C)c1S(=O)(=O)n1c([S+]([O-])Cc2nccc(OCC(F)(F)F)c2C)nc2ccccc21.[Na+] (centres unmarked) [Compound 39, 4-[2-{3-Methyl-4-(2,2,2-trifluoroethoxy)pyridin-2-yl-methanesulfinyl}-benzimidazole-1-sulfonyl]-3-isopropyl-5-methylphenoxyacetic acid sodium salt] | – | – | 317 | –
Cc1c(OCC(F)(F)F)ccnc1C[S+]([O-])c1nc2ccccc2[nH]1 (centres unmarked) [LANSOPRAZOLE, 2-[3-methyl-4-(2,2,2-trifluoroethoxy)pyridin-2-yl-methanesulfinyl]-1H-benzimidazole, reference compound] | – | – | – | % inhibition of gastric acid secretion between 2-4 hours after i.v. administration (gastric acid secretion; 5 μmole/kg): 91.5 ± 5.0%; inhibition in vivo at 10 µmol/kg [3]: 67.6 ± 14.7%
COc1ccc2[nH]c([S+]([O-])Cc3ncc(C)c(OC)c3C)nc2c1 (centres unmarked) [OMEPRAZOLE, 5-methoxy-2-(4-methoxy-3,5-dimethyl-pyridin-2-yl-methanesulfinyl)-1H-benzimidazole, reference compound] | – | – | – | inhibition in vivo at 10 µmol/kg [3]: 54.6 ± 10.4%

Second part, led by results:

half-life [2] [min] | solubility [4] [mg/mL] | half-life [5] [min] | Structure (SMILES) | further results
12 | > 30 | 14 | Cc1c(OCC(F)(F)F)ccnc1C[S+]([O-])c1nc2ccccc2n1S(=O)(=O)c1cccc(C(=O)O)c1 (centres unmarked) [Compound 1, 3-{2-[3-Methyl-4-(2,2,2-trifluoro-ethoxy)-pyridin-2-ylmethanesulfinyl]-benzimidazole-1-sulfonyl}benzoic acid] | half-life at 0.1 mg/mL [1]: > 50 h; % inhibition of gastric acid secretion between 2-4 hours after i.v. administration (gastric acid secretion; 5 μmole/kg): 83.7 ± 10.1%; % inhibition of gastric acid secretion between 2-4 hours after i.v. administration (gastric acid secretion; 10 μmole/kg): 90.6 ± 2.1%; inhibition in vivo at 20 µmol/kg [3]: 81.9 ± 7.1%
10 | > 50 | 81 | COc1ccc(S(=O)(=O)n2c([S+]([O-])Cc3nccc(OCC(F)(F)F)c3C)nc3ccccc32)cc1C(=O)[O-].[Na+] (centres unmarked) [Compound 3, 2-methoxy-5-{2-[3-methyl-4-(2,2,2-trifluoro-ethoxy)-pyridin-2-ylmethanesulfinyl]benzimidazole-1-sulfonyl}-benzoic acid sodium salt] | half-life at 0.1 mg/mL [1]: > 50 h; inhibition in vivo at 20 µmol/kg [3]: 84.9 ± 13.6%
60 | – | 98 | CCC(Oc1ccc(S(=O)(=O)n2c([S+]([O-])Cc3nccc(OCC(F)(F)F)c3C)nc3ccccc32)cc1)C(=O)[O-].[Na+] (centres unmarked) [Compound 4 Na salt, 2-(4-{2-[3-methyl-4-(2,2,2-trifluoro-ethoxy)-pyridin-2-ylmethanesulfinyl]-benzimidazole-1-sulfonyl}phenoxy)butyric acid sodium salt] | –
– | > 30 | 31 | Cc1cc(OCC(=O)[O-])cc(C)c1S(=O)(=O)n1c([S+]([O-])Cc2nccc(OCC(F)(F)F)c2C)nc2ccccc21.[Na+] (centres unmarked) [Compound 5] | half-life at 0.1 mg/mL [1]: > 50 h
51 | > 50 | 78 | Cc1c(OCC(F)(F)F)ccnc1C[S+]([O-])c1nc2ccccc2n1S(=O)(=O)c1ccc(OCC(=O)[O-])c(OCC(=O)[O-])c1.[Na+].[Na+] (centres unmarked) [Compound 12, (2-Carboxymethoxy-4-{2-[3-methyl-4-(2,2,2-trifluoro-ethoxy)-pyridin-2-ylmethanesulfinyl]-benzimidazole-1-sulfonyl}-phenoxy)-acetic acid di-sodium salt] | % inhibition of gastric acid secretion between 2-4 hours after i.v. administration (gastric acid secretion; 5 μmole/kg): 89.2 ± 6.8%; % inhibition of gastric acid secretion between 2-4 hours after i.v. administration (gastric acid secretion; 10 μmole/kg): 92.6 ± 2.9%; inhibition in vivo at 40 µmol/kg [3]: 82.8 ± 9.6%
– | – | 14 | Cc1ccc(C(=O)[O-])cc1S(=O)(=O)n1c([S+]([O-])Cc2nccc(OCC(F)(F)F)c2C)nc2ccccc21.[Na+] (centres unmarked) [Compound 27, 3-{2-[3-Methyl-4-(2,2,2-trifluoro-ethoxy)-pyridin-2-yl-methanesulfinyl]-benzimidazole-1-sulfonyl}-4-methylbenzoic acid sodium salt] | inhibition in vivo at 40 µmol/kg [3]: 96.7 ± 1.3%
– | – | 19 | COc1ccc(S(=O)(=O)n2c([S+]([O-])Cc3nccc(OCC(F)(F)F)c3C)nc3ccccc32)cc1CCC(=O)[O-].[Na+] (centres unmarked) [Compound 36, 3-[2-Methoxy-5-{2-(3-methyl-4-(2,2,2-trifluoroethoxy)pyridin-2-yl-methanesulfinyl)-benzimidazole-1-sulfonyl}phenyl]propionic acid sodium salt] | inhibition in vivo at 40 µmol/kg [3]: 89.8 ± 6.8%
